{
  "source": "patent US20090054333A1",
  "about": "“Peptide inhibitors of cyclin-dependent kinase activity and uses thereof” (priority 2006, published 2009)",
  "key": {"NIH/3T3 cells": {"system": "NIH/3T3 cells", "assay": "cell cycle analysis by flow cytometry (FACS)", "type": "cell-based", "conditions": "NIH/3T3 transiently transfected, EGFP-gated; 48 h after transfection; propidium iodide", "procedure": "A marker plasmid expressing enhanced green fluorescent protein (EGFP)-spectrin was included in the transfection mixture. Control cells, which were not transfected with EGFP-spectrin, were used as the EGFP-negative population. Cells were harvested and examined for their cell cycle states by fluorescence-activated cell sorter (FACS) analysis. After harvest, cells were fixed by adding ice-cold 70% ethanol while vortexing. Fixed cells were stored at 4° C. for at least 30 min and then washed once with PBS. Cells were then stained with 10 μg/ml propidium iodide (Roche Applied Science, Indianapolis, Ind.), 250 μg/ml RNase (Sigma, St. Louis, Mo.) in PBS and incubated at 37° C. for 30 min in the dark. Transfected cells were gated according to their EGFP expression and the DNA content was determined by flow cytometry analysis. The percentage of cells in the different phases of the cell cycle was measured with a FACS Calibur instrument (Becton-Dickinson, San Jose, Calif.) and the data obtained were analyzed by WinMDI 2.8 software. […]\nIn FIG. 5a, three plasmids were co-expressed with EGFP-spectrin, in a 1:10 ratio, in transient transfection assays. Cells were harvested 48 hours after transfection, stained with propidium iodide and analyzed by flow cytometric gating for both GFP and propidium iodide. […]"}, "[1]": {"system": "A549 non-small cell lung cancer cell line", "assay": "treatment of tumor growth in vivo, A549 tumor xenografts", "parameters": "species or system athymic nude mice (CD1, nu/nu)", "conditions": "A549 xenograft in nude mice; 50 μl of 1.5 mM peptide injected into the tumoral region", "procedure": "Cell Culture The A549 (wt p53, and wt RB) non-small cell lung cancer cell line was cultured in Ham's F-12 with NaHCO3 (0.75 g NaHCO3/500 ml of Ham's F-12) and 10% (vol/vol) fetal bovine serum (FBS). The cells were cultured at 37° C. in a humidified incubator containing 5% CO2. Cells were harvested, when they reached 70-80% confluence.\nPreparation of Tumor Xenografts in Immunodeficient Mice: The animal experiments were carried out in accordance with the Guidelines for the Care and Use of Laboratory Animals (National Institute of Health publication number 85-23) and the institutional guidelines of Temple University. 4-6 week-old female athymic nude mice (CD1, nu/nu) were bought from Charles River Laboratory (Wilmington, Mass.). About a week after the mice arrived, the A549 cells were harvested and then suspended in unsupplemented culture medium without FBS. After the mice were anesthetized by isoflurane inhalation, 4×10^6 cells in a final volume of 100 μl were injected subcutaneously into the right flank of each mouse by using 1-cc syringes with 25.5-gauge needles.\nIn Vivo Treatments: The length and width of each tumor were measured every time in triplicates by using a Vernier caliper. […]\nFor each peptide type, three mice were treated. […] The tumor sizes were measured before each treatment. Tumor volumes were calculated and plotted on a graph. […]"}},
  "data": [
    {"molecule": "Spa310: pRb2/p130 amino acids 641-679 (39 amino acids long), SEQ ID NO:3; LTPRRVTEVRADTGGLGRSITSPTTLYDRYSSPPASTTR (listed as Homo sapiens)", "values": [
      {"measurement": "effect on cell cycle distribution", "setting": "NIH/3T3 cells", "value": "induced a G0/G1 arrest of the cell cycle"},
      {"measurement": "tumor growth", "setting": "[1]", "value": "does suppress the tumor growth"}
    ]},
    {"molecule": "Spacer: full-length pRb2/p130 spacer domain, amino acids 616-828 (SEQ ID NO:20) (protein, listed as Homo sapiens) VPTCEEVMPPQNLERADEICIAGSPLTPRRVTEVRADTGGLGRSITSPTTLYDRYSSPPASTTRRRLFVENDSPSDGGTPGRMPPQPLVNAVPVQNVSGETVSVTPVPGQTLVTMATATVTANNGQTVTIPVQGIANENGGITFFPVQVNVGGQAQAVTGSIQPLSAQALAGSLSSQQVTGTTLQVPGQVAIQQISPGGQQQKQGQSVTSSSN", "values": [
      {"measurement": "effect on cell cycle distribution", "setting": "NIH/3T3 cells", "value": "induced a G0/G1 arrest of the cell cycle"}
    ]}
  ]
}
